# Results published in US20060099712A1, “Correlation of anti-cancer activity of dyes with redox potentials” (Eastman Kodak Company, priority 2004, published 2006).
# System: CX-1 Human Colon Carcinoma
# Test: Clonogenic dye screening assay, CX-1 cells (IC50)
# Type: cell-based
# Conditions: for CX (IC50 in the CX-1 cell line): 3 hrs treatment, colonies after 7-10 days, unit from method b117-118; for CV/CX (selectivity, kill ratio): ratio of IC50 in normal CV-1 line to IC50 in carcinoma CX-1 line
# Summary of the method: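 Cells seeded 16-30 h ahead (2000 CX-1 or 1000 CV-1 per well), exposed to serially diluted dyes for 3 h at 37 °C, rinsed three times, then grown into colonies. Eight-point curves spanned 0.32-0.0015 μg/mL (CX-1) and 3.2-0.025 μg/mL (CV-1). IC50 is the concentration killing 50% of cells.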
SMILES,CX (IC50 in the CX-1 cell line),"CV/CX (selectivity, kill ratio)"
CCN1/C(=C/C=C/c2sc3ccc(OC)cc3[n+]2CC)Sc2ccc(OC)cc21 [drawing 41|Et|5-MeO|5-MeO],–,40.0
CCN1C(=CC=Cc2sc3ccc(OC)cc3[n+]2CC)Sc2ccccc21 [drawing 41|Et|5-MeO|H],–,40.0
CCN1/C(=C/C=C/c2sc3c(OC)cccc3[n+]2CC)Sc2c(OC)cccc21 [drawing 41|Et|7-MeO|7-MeO],–,5.0
"CN1/C(=C/C=C/c2sc3c(F)c(F)c(F)c(F)c3[n+]2C)Sc2c(F)c(F)c(F)c(F)c21 [drawing 41|Me|4,5,6,7-F|4,5,6,7-F]",>0.32 µg/mL,10.0
"CCN1/C(=C\C=C\c2[se]c3ccccc3[n+]2CC)Sc2cc(O)c(O)cc21 [drawing 42|H|5,6-OH]",0.300 µg/mL,–
"CC1CC2=C(c3ccccc31)N(C)/C(=C/C=C/c1sc3c([n+]1C)-c1ccccc1C(C)C3)S2 (centres unmarked) [drawing 43|M|4,5-H, 5-ME|4,5-H, 5-ME]",0.08 µg/mL,1.25
"CN1C2=C(CCc3ccccc32)S/C1=C\C=C\c1sc2c([n+]1C)-c1ccccc1CC2 [drawing 43|M|4,5-H|4,5-H]",0.20 µg/mL,4.0
CN1/C(=C/C=C/c2sc3ccc4ccccc4c3[n+]2C)Sc2ccc3ccccc3c21 [drawing 43|M|H|H],–,10.0
"CC[n+]1c(/C=C/C=C2\Oc3cc([N+](=O)[O-])c(Cl)cc3N2C)sc2cc([N+](=O)[O-])ccc21 [drawing 44|E/M|6-N03|5-Cl, 6-N03]",–,10.0
CCN1/C(=C\C=C\c2sc3ccccc3[n+]2CC)Oc2ccc(Cl)cc21 [drawing 44|Et|H|5-Cl],–,27.3
"CCN1/C(=C/C=C/c2sc3cc(OC)c(OC)cc3[n+]2CC)Oc2ccccc21 [drawing 44|E|5,6-MeO|H]",–,12.5
"CCN1/C(=C/C=C/c2sc3cc(C)c(C)cc3[n+]2CC)Oc2ccccc21 [drawing 44|E|5,6-Me|H]",–,>20.0
"CCN1/C(=C/C=C/c2sc3cc(O)c(O)cc3[n+]2CC)Oc2ccccc21 [drawing 44|E|5,6-OH|H]",–,8.0
CCN1/C(=C/C=C/c2sc3ccc(C#N)cc3[n+]2CC)Oc2ccccc21 [drawing 44|E|5-CN|H],–,>13.3
CCN1/C(=C/C=C/c2sc3ccccc3[n+]2CC)Oc2cccc(O)c21 [drawing 44|E|H|4-OH],–,0.43
"CCN1/C(=C/C=C/c2sc3ccccc3[n+]2CC)Oc2cc(C)c(C)cc21 [drawing 44|E|H|5,6-Me]",–,>20.0
"CCN1/C(=C/C=C/c2sc3ccccc3[n+]2CC)Oc2cc(C)c(Cl)cc21 [drawing 44|E|H|5-Cl, 6-Me]",–,11.4
CCN1/C(=C/C=C/c2sc3ccccc3[n+]2CC)Oc2ccc(C)cc21 [drawing 44|E|H|5-Me],–,4.0
CCN1/C(=C/C=C/c2sc3ccccc3[n+]2CC)Oc2ccc(NS(=O)(=O)c3ccccc3)cc21 [drawing 44|E|H|5-NHSO2Ph],–,16.7
"CCN1/C(=C/C=C/c2oc3c(Cl)c(C)c(Cl)cc3[n+]2CC)Oc2c1cc(Cl)c(Cl)c2C [drawing 45|5,7-Cl, 6-Me|5,6-Cl, 7-Me]",–,>10.0

# More lines, main results first:
CX (IC50 in the CX-1 cell line),SMILES,"CV/CX (selectivity, kill ratio)"
0.03 µg/mL,"CCN1/C(=C/C=C/c2sc3c(N(C)C)cc(Cl)cc3[n+]2CC)Sc2ccccc21 [drawing 41|Et|5-Cl, 7-N(Me)2|H]",6.7
0.02 µg/mL,CCN1C(=CC=Cc2sc3ccc(Cl)cc3[n+]2CC)Sc2ccccc21 [drawing 41|Et|5-Cl|H],40.0
0.015 µg/mL,CCN1C(=CC=Cc2sc3ccc(OC)cc3[n+]2CC)Sc2ccc(C)cc21 [drawing 41|Et|5-MeO|5-Me],13.3
0.08 µg/mL,"CCN1/C(=C/C=C/c2sc3ccc(-c4ccccc4)cc3[n+]2CC)Sc2ccc(-c3ccccc3)cc21 [drawing 41|Et|5-Ph|5-Ph,]",1.25
0.01 µg/mL,CCN1C(=CC=Cc2sc3cc(OC)ccc3[n+]2CC)Sc2cc(OC)ccc21 [drawing 41|Et|6-MeO|6-MeO],9.0
0.16 µg/mL,CCN1/C(=C/C=C/c2sc3cc(C#N)ccc3[n+]2C)Sc2ccccc21 [drawing 41|M/E|6-CN|H],20.0
0.006 µg/mL,"CCN1C2=C(CCc3ccccc32)S/C1=C\C=C\c1sc2c([n+]1CC)-c1ccccc1CC2 [drawing 43|E|4,5-H|4,5-H]",8.33
0.3 µg/mL,CCN1/C(=C/C=C/c2sc3ccc4ccccc4c3[n+]2CC)Sc2ccc3ccccc3c21 [drawing 43|E|H|H],6.7
0.02 µg/mL,"COc1cccc2c1CCC1=C2N(C)/C(=C/C=C/c2sc3c([n+]2C)-c2cccc(OC)c2CC3)S1 [drawing 43|M|4,5-H, 6-MeO|4,5-H, 6-MeO]",0.75
0.08 µg/mL,COc1cccc2c3c(ccc12)S/C(=C\C=C\c1sc2ccc4c(OC)cccc4c2[n+]1C)N3C [drawing 43|M|6-MeO|6-MeO],10.0
0.09 µg/mL,COc1ccc2c3c(ccc2c1)S/C(=C\C=C\c1sc2ccc4cc(OC)ccc4c2[n+]1C)N3C [drawing 43|M|7-MeO|7-MeO],35.5
0.02 µg/mL,COc1ccc2ccc3c(c2c1)N(C)/C(=C/C=C/c1sc2ccc4ccc(OC)cc4c2[n+]1C)S3 [drawing 43|M|8-MeO|8-MeO],40.0
0.08 µg/mL,"CCN1/C(=C/C=C/c2oc3cc4c(cc3[n+]2CC)OCO4)Oc2cc3c(cc21)OCO3 [drawing 45|5,6-OCO—|5,6-OCO—]",5.0
>.32 µg/mL,CCN1/C(=C\C=C\c2oc3ccc(C(F)(F)F)cc3[n+]2CC)Oc2ccc(C(F)(F)F)cc21 [drawing 45|5-CF3|5-CF3],10.0
>.32 µg/mL,CCOC(=O)c1ccc2c(c1)N(CC)/C(=C/C=C/c1oc3ccc(C(=O)OCC)cc3[n+]1CC)O2 [drawing 45|5-CO2Et|5-CO2Et],10.0
